Measured values: paper PMC6150735, “Molecular Docking-Based Design and Development of a Highly Selective Probe Substrate for UDP-glucuronosyltransferase 1A10” (Molecular Pharmaceutics, 2018)
“Also recorded” adds a separate entry of the source.

What was measured:
[1] = Glucuronidation by human liver microsomes (HLM); format: in vitro ADME; conditions: pooled human liver microsomes (HLM), pH 7.4; human hepatic microsomes
Method: (§1) A commercial HLM pool (cat no:452210, BD Gentest, Bedford, MA) and human intestine microsomes (HIM) pool (lot. no 1110189, XenoTech, Kansas City, KS) were purchased. Pig liver samples were prepared from untreated female pigs that were used for practicing surgical procedures at the University of Kuopio (currently: University of Eastern Finland, Kuopio campus). Other animal liver microsomes were prepared as described previously.[41] The Ethics Committee for Animal Experiments, University of Kuopio, approved these experiments.
(§2) The incubation mixtures for glucuronidation assays contained 100 mM Tris-HCl buffer pH 7.4, 2.5 mM MgCl2, 0.5 mM UDPGA, recombinant UGT, or microsomes as the enzyme source and 0–15 μM of the test aglycone substrate. When the incubation mixtures contained microsomes, alamethicin was used at a final concentration of 12.5 μg/mL, but it was not included in the recombinant enzyme assays.[43] In the first experiments three negative control samples were tested, namely (i) without the substrate 7-hydroxycoumarin derivative, (ii) without the cofactor UDPGA, or (iii) without the enzyme source. In subsequent experiments, the control samples lacked the enzyme source since it gave the highest fluorescence background. Preliminary experiments were done under different conditions than most of the later assays, namely in 2.5 mL of 100 mM phosphate buffer pH 7.4, containing 500 μg pig liver microsomes, 1.0 μM compound 6 and 0.5 mM UDPGA, at room temperature. Fluorescence spectra (excitation 200–420 nm; emission 400–600 nm) or fluorescence decrease at 390 nm excitation and 460 nm emission, were measured in these preliminary experiments, using a Shimadzu RF-5000 spectrophotofluorometer.
(§3) Most of the glucuronidation assays were carried out in 96 multiwell plate format, and incubations were carried out in 100 μL and at 37 °C, in the presence of Tris–HCl buffer pH 7.4, UDPGA, and the tested 7-hydroxycoumarin derivative, at the indicated concentrations. Fluorescence decline in the multiwell plate experiments was monitored every other minute, for 40 min, using an excitation filter at 405 nm and detection at 460 nm, in a Victor2 1420 Multilabel counter (PerkinElmer, Life Sciences, Turku, Finland). The fluorescence values were transformed into molarity using the aglycone substrates for making the respective standard curves. Slopes of the substrate concentration decrease per minute were calculated using linear regression analysis, in which the linear part of the kinetic assay indicated the glucuronidation rate. Enzyme catalyzed glucuronidation rate was calculated by subtracting the blank value from the full reaction value. The intra-assay variability of the kinetic assays was 6% when compound 6 was used as the aglycone substrate. Kinetic analyses were also performed in the same 96 multiwell plates format, with excitation filter at 405 nm and detection at 460 nm, using 6–8 different substrate concentrations per substrate and two different protein concentrations for both the wild-type and mutant UGT1A10. The higher concentrations, 13.5 mg/L for UGT1A10 and 12.0 mg/L for the UGT1A10 mutant, were used when the substrates were HFC, compounds 4 and 6, whereas the lower protein concentrations, 6.75 and 6.0 mg/L for UGT1A10 and the mutant, respectively, were used when the substrates were compounds 1, 2, 3, and 5.

[2] = system: human liver microsomes (HLM); test: Glucuronidation by human liver microsomes (HLM); format: in vitro ADME
Method: as §1, §2, §3

[3] = Excitation and emission fluorescence spectra of coumarin derivatives; format: physicochemical; design: dose or concentration left out as unconfirmed
Method: The absorbance spectra of 10 μM coumarin derivatives at 100 mM Tris–HCl pH 7.4 containing 10% dimethyl sulfoxide were measured using a Hitachi U-2000 Spectrophotometer (Tokyo, Japan). […] The excitation spectra was from 200 to 420 at 460 nm emission and the emission spectra was from 400 to 600 at 390 nm excitation (data in Supplementary Table S1 and Figures S1 and S2). The effect of pH on fluorescence intensity was determined at 405 nm excitation and 460 nm emission, in the presence of 1.5% trichloroacetic acid, 100 mM phosphate buffers at pH 5, 6, 7, 8, and 9, or 1.6 M glycine–NaOH pH 10.4.

[4] = target: T1, UGT1A10 (Homo sapiens, UniProt Q9HAW8); test: Glucuronidation kinetics by recombinant wild-type UGT1A10 (fluorescence decrease, 96-well plate); format: biochemical
T1 construct: His-tag; made in house; host or cells: baculovirus-infected insect cells
T1 sequence (Q9HAW8 26-530): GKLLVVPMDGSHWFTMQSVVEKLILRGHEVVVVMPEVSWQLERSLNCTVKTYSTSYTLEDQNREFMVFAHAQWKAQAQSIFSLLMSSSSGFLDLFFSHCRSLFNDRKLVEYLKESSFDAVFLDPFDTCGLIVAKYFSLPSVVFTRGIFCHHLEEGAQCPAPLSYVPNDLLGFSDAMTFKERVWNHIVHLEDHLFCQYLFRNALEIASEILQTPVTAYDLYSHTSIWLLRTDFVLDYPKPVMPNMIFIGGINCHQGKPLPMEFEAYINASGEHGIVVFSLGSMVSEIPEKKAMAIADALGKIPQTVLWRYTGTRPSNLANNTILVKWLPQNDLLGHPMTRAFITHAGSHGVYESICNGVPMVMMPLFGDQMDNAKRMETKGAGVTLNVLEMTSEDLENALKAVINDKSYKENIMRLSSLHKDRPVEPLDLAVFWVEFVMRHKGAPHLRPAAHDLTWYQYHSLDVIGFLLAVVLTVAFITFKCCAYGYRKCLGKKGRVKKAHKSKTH
Method: Recombinant human UGTs 1A1, 1A3, 1A6, 1A7, 1A8, 1A9, 1A10, 2A1, 2A2, 2A3, 2B4, 2B10, 2B7, and 2B17 were produced, as His-tagged proteins, in baculovirus-infected insect cells as previously described.[37]−[39] The relative expression level of each of these recombinant UGTs was evaluated by immunodetection, using monoclonal antibody against the His-tag, as described elsewhere.[40] A numeric value of 1.0 was given to the expression level of UGT1A8 and the relative expression level of each of the other UGTs was related to this value. Normalized activities were obtained by dividing the glucuronidation rate values by the relative expression level of the tested UGT. […] The expression levels of the UGTs in the commercial samples could not be determined, so their protein concentration was used to calculate the reaction rate.
The incubation mixtures for glucuronidation assays contained 100 mM Tris-HCl buffer pH 7.4, 2.5 mM MgCl2, 0.5 mM UDPGA, recombinant UGT, or microsomes as the enzyme source and 0–15 μM of the test aglycone substrate. […] In subsequent experiments, the control samples lacked the enzyme source since it gave the highest fluorescence background. […] Fluorescence spectra (excitation 200–420 nm; emission 400–600 nm) or fluorescence decrease at 390 nm excitation and 460 nm emission, were measured in these preliminary experiments, using a Shimadzu RF-5000 spectrophotofluorometer. […]

Km [1]: 82 µM
Fluorescence EMmax [3]: 494 nm
Fluorescence EXmax [3]: 396 nm
Intrinsic glucuronidation clearance (Vmax/Km) by UGT1A10 relative to compounds 1–5 [4]: less than 30%
SMILES: O=c1oc2cc(O)ccc2cc1-n1cncn1 [Compound 6, 7-Hydroxy-3-(1H-1,2,4-triazol-1-yl)-2H-chromen-2-one]
Glucuronidation by HLM (in words) ([2]; 10 μM aglycone): not glucuronidated by HLM at all, or only at very low rates; also recorded: very low or below the detection limit
Vmax ([2]; human hepatic microsomes): 4.0 (2.6–5.4) μmol/(min* g prot)
